The target of assay [1] is T1, Cholinesterase (Homo sapiens, UniProt P06276). The assay can be described thus: Inhibition of BuChE (unknown origin).
Assay [2] concerns the target T2, Acetylcholinesterase (Homo sapiens, UniProt P22303). The assay can be described thus: Inhibition of AChE (unknown origin).
The target in assay [3] is Glycogen synthase kinase-3 beta (Homo sapiens) (UniProt P49841). Nature of the assay: Non-competitive inhibition of GSK3-beta (unknown origin) assessed as inhibition of tau hyperphosphorylation at 100 ug/ml incubated for 1 hr in presence of ATP by ADP-Glo kinase assay relative to control. The settings on record: dose 100.0 µg/ml. Background: ADP-Glo first removes unused ATP, then detects ADP through luciferase.

For assay [4], the target named is T3, Amyloid-beta precursor protein (Homo sapiens, UniProt P05067). Nature of the assay: Inhibition of amyloid beta (unknown origin) aggregation.
Assay [5] has as its target T3, Amyloid-beta precursor protein. Nature of the assay: Inhibition of amyloid beta (1 to 42) (unknown origin) fibril formation incubated for 1 hr by thioflavin-T fluorescence assay.
The target is the same in assay [6]. Nature of the assay: Inhibition of self-induced amyloid beta (unknown origin) aggregation.
Assay [7] concerns the target T4, Amine oxidase [flavin-containing] B (Homo sapiens, UniProt P27338).
T4 sequence (P27338 whole entry): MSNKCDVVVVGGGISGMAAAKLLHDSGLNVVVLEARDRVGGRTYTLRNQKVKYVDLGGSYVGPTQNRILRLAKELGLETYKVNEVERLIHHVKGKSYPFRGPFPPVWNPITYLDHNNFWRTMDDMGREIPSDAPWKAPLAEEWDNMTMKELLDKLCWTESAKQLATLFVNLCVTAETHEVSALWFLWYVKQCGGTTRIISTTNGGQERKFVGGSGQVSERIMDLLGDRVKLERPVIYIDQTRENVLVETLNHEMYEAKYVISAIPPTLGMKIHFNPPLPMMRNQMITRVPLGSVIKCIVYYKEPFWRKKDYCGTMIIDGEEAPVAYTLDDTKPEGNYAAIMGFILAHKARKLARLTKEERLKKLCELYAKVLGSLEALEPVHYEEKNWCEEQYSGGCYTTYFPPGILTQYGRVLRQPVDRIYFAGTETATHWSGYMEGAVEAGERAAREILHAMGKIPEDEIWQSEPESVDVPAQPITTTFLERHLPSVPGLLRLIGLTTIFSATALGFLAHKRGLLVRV
The assay can be described thus: Inhibition of human MAO-B.

Assay [8] concerns Mus musculus. The assay can be described thus: Anti-alzheimer activity in APP/PS1 mouse model assessed as reduction in cerebral levels of insoluble amyloid beta (1 to 40) at 40 mg/kg, po administered via oral gavage once a day for 12 weeks relative to control. Type of assay: functional. More on the design: scale not given: the % may be the effect or the level left.
Assay [9] is described as follows: Antioxidant activity of compound assessed as trolox equivalent preincubated for 15 mins followed by AAPH addition and measured for 90 mins by ORAC-FL assay. Type of assay: functional. The settings on record: time 105.0 min.
Assay [10] addresses T2, Acetylcholinesterase. Nature of the assay: Inhibition of AChE (unknown origin) at 100 uM relative to control.
The target in assay [11] is T5, Beta-secretase 1 (Homo sapiens, UniProt P56817). The assay can be described thus: Inhibition of human BACE-1 at 100 uM relative to control.
For assay [12], the target named is T3, Amyloid-beta precursor protein. The assay can be described thus: Inhibition of self-induced amyloid beta (unknown origin) aggregation at 100 uM relative to control.
For assay [13] the target is unchanged. Nature of the assay: Inhibition of self-induced amyloid beta (1 to 42) (unknown origin) aggregation at 10 uM relative to control.
Assay [14] has as its target T4, Amine oxidase [flavin-containing] B. The assay can be described thus: Inhibition of MAO-B (unknown origin).
In assay [15] the target is T2, Acetylcholinesterase. Nature of the assay: Inhibition of AChE (unknown origin) assessed as inhibition constant.
The test system of assay [16] is SH-SY5Y. Nature of the assay: Neuroprotective activity against amyloid beta treated human SH-SY5Y cells at 1 nM relative to control. Type of assay: functional.
In assay [17] the target is T5, Beta-secretase 1. The assay can be described thus: Inhibition of human BACE-1 at 500 uM relative to control.
Assay [18] deals with T3, Amyloid-beta precursor protein. Nature of the assay: Inhibition of self-induced amyloid beta (unknown origin) aggregation at 20 uM relative to control.
Assay [19] relates to Mus musculus. Nature of the assay: Antialzheimer activity in Tg2576 mouse model assessed as decrease in soluble amyloid beta level in brain homogenate at 20 mg/kg, ip administered daily for 30 days relative to control. Type of assay: functional. Set-up: scale not given: the % may be the effect or the level left. The following applies: time 30 day.
The target in assay [20] is T2, Acetylcholinesterase. The assay can be described thus: Inhibition of AChE (unknown origin) relative to control. The following applies: concentration not given here.
The target in assay [21] is T1, Cholinesterase. The assay can be described thus: Inhibition of BuChE (unknown origin) relative to control. The settings on record: concentration not given here.
The target of assay [22] is T5, Beta-secretase 1. Nature of the assay: Inhibition of BACE-1 (unknown origin) relative to control. The following applies: concentration not given here.
The target in assay [23] is T3, Amyloid-beta precursor protein. Nature of the assay: Inhibition of self-induced amyloid beta (unknown origin) aggregation at 3 uM relative to control.
The test system of assay [24] is HT-22. The assay can be described thus: Neuroprotective activity against glutamate-induced cell death in mouse HT-22 cells at 10 uM relative to control. Type of assay: functional.
The subject of assay [25] is SH-SY5Y. The assay can be described thus: Neuroprotective activity against human SH-SY5Y cells assessed as increase in cell viability at 25 uM relative to control. Type of assay: functional.
For assay [26], the target named is T5, Beta-secretase 1. The assay can be described thus: Inhibition of human BACE-1.
The subject of assay [27] is HepG2. The assay can be described thus: Cytotoxicity against human HepG2 cells assessed as reduction in cell viability at 10 uM relative to control. Type of assay: functional.
In assay [28] the target is T3, Amyloid-beta precursor protein. Nature of the assay: Inhibition of self-induced amyloid beta (unknown origin) aggregation relative to control. The settings on record: concentration not given here.
Assay [29] addresses T2, Acetylcholinesterase. The assay can be described thus: Inhibition of human recombinant AChE preincubated for 20 mins followed by substrate addition by Ellman's method.
In assay [30] the target is T1, Cholinesterase. Nature of the assay: Inhibition of human serum BuChE preincubated for 20 mins followed by substrate addition by Ellman's method. Type of assay: cell-free. (In general: DTNB colorimetry detects thiols as they appear.)

T2 sequence (P22303 whole entry): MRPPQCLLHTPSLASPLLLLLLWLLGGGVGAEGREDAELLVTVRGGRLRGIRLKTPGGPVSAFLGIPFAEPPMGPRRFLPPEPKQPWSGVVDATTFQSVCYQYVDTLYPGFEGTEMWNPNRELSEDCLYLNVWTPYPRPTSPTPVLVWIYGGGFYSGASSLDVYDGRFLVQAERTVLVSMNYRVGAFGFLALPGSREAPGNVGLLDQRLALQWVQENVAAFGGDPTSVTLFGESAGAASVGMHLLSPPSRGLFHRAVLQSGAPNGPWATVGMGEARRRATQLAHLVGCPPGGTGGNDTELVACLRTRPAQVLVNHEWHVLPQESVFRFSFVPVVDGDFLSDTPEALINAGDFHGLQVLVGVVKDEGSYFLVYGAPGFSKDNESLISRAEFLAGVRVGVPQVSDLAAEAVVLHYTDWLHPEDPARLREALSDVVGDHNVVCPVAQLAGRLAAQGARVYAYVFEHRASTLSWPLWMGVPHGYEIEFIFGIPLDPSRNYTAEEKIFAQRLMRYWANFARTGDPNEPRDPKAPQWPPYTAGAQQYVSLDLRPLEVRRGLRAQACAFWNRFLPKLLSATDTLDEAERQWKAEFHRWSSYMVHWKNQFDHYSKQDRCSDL
T5 sequence (P56817 whole entry): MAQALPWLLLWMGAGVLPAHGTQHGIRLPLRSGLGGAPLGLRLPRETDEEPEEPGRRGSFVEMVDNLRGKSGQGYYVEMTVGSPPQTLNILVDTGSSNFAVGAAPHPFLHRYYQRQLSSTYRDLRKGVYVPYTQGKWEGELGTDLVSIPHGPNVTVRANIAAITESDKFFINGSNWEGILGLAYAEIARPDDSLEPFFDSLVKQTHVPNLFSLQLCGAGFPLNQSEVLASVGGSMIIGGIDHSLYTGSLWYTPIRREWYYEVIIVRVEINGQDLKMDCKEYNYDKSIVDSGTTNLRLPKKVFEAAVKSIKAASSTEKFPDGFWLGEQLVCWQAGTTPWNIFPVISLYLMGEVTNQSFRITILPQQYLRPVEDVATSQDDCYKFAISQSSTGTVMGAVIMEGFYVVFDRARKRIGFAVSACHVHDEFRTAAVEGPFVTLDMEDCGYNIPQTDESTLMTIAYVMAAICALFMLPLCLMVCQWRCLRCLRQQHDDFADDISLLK
T3 sequence (P05067 whole entry): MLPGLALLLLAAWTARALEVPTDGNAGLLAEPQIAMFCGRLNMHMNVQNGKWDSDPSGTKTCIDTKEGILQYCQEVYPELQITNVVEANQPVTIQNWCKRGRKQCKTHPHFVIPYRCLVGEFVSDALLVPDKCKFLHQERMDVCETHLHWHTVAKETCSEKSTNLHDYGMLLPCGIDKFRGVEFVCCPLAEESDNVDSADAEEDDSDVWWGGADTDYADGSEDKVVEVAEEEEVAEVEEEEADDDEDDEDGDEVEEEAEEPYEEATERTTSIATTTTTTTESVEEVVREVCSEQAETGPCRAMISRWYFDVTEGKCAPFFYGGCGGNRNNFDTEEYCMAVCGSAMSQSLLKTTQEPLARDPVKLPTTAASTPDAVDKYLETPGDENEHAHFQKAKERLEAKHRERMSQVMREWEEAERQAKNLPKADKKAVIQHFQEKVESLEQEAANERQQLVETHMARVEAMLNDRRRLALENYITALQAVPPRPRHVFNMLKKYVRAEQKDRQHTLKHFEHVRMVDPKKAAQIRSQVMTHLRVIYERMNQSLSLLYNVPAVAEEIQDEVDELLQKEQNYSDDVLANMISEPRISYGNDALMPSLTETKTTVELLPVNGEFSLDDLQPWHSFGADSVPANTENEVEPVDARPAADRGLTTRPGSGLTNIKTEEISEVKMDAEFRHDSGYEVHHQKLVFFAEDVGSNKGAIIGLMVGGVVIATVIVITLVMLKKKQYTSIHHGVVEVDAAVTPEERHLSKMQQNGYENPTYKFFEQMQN
T1 sequence (P06276 whole entry): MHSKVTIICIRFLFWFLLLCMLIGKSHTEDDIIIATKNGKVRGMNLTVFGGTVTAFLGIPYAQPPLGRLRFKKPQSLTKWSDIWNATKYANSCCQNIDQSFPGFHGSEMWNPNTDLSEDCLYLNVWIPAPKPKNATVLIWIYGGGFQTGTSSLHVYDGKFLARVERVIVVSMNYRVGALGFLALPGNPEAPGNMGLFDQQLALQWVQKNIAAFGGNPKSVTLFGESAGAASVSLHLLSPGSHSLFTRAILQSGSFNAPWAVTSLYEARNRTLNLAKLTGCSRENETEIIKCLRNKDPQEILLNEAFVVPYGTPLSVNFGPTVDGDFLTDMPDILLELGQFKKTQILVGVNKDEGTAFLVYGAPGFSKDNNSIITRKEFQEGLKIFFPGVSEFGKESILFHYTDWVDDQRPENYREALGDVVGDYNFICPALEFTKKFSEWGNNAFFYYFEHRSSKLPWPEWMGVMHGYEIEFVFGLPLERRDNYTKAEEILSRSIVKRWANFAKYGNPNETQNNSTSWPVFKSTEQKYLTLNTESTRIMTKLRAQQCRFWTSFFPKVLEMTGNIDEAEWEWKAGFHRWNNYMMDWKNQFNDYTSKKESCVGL
Sequence of Glycogen synthase kinase-3 beta (Homo sapiens) (P49841 whole entry, looked up): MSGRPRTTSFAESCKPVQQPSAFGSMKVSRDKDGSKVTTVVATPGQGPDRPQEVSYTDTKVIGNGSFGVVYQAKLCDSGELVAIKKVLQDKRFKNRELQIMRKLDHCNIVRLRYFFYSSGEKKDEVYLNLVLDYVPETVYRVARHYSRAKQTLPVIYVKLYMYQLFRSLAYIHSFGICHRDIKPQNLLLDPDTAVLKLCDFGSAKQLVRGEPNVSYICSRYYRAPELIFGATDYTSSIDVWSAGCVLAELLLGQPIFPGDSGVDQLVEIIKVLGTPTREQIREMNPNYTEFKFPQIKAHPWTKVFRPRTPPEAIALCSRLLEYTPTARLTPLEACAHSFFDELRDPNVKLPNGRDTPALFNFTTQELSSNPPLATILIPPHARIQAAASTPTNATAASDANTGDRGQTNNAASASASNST

As for `CCN(CC)CCOc1ccc2c(=O)cc(-c3ccc(OC)cc3)oc2c1`, the IC50 in assay [1] came out at 49.1 nM; in assay [2] it was 27.1 nM.

In the case of `COc1cc(-c2cc(=O)c3c(O)c([C@@H]4O[C@H](CO)[C@@H](O)[C@H](O)[C@H]4O)c(O)cc3o2)ccc1O`, the inhibition in assay [3] worked out at 41.5%.

`COc1ccc(-c2cc(=O)c3ccc(OCCN4CCOCC4)cc3o2)cc1`: the values for the IC50 in assay [1] and in assay [2] were 54.3 nM and 11 nM, respectively.

Compound `O=C(O[C@@H]1Cc2c(O)cc(O)cc2O[C@@H]1c1cc(O)c(O)c(O)c1)c1cc(O)c(O)c(O)c1` [EPIGALOCATECHIN GALLATE] displayed an IC50 in [4] of 180 nM.

Turning to `O=c1cc(-c2ccc(O)c(O)c2)oc2cc(O)c([C@@H]3O[C@H](CO)[C@@H](O)[C@H](O)[C@H]3O)c(O)c12`, in [3], the inhibition was 48.4%.

`COc1cc(O)c2c(=O)c(O)c(-c3ccc(O)c(O)c3)oc2c1` [RHAMNETIN]: in assay [5], the IC50 turned out to be 2300 nM.

Regarding `Cc1ccc(NCC[C@@H]2CCCN3CCCC[C@H]23)c2c(=O)c3ccccc3sc12`, the IC50 in assay [1] came to 460 nM; in assay [2], 5200 nM; in [6] it was 840 nM.

In turn, `COc1ccc(/C=C2\COc3cc(OCCN4CCCCC4)ccc3C2=O)cc1` returned an IC50 in assay [7] of 25000 nM.

`O=c1c(O)c(-c2ccc(O)cc2O)oc2cc(O)cc(O)c12` [MORIN] displayed an IC50 in [5] of 7400 nM.

Compound `CN(C)Cc1c(O)c(O)c(O)c2c(=O)cc(-c3ccccc3)oc12` came in with an IC50 in [2] of 82000 nM.

With `O=c1cc(-c2ccc(O)cc2)oc2cc(O)cc(O)c12` [APIGENIN], the Activity in [8] is listed as 20%.

`CCN(CC)C(=O)Oc1ccc(-c2cc(=O)c3c(O)c(O)c(O)cc3o2)cc1`: the IC50 in assay [1] amounted to 22100 nM; in assay [2], 1200 nM. In assay [9], the Activity came out at 10.3.

Consider `COc1cc2c(cc1CC=C(C)C)C(=O)C[C@@H](c1ccc(O)cc1)O2`, for which the inhibition in [10] came to 81%; in assay [11], 21%; in [12], 57%.

On to `O=c1c(O)c(-c2cc(O)c(O)c(O)c2)oc2cc(O)cc(O)c12`, for which the inhibition in [13] came out at 65.2%.

For the compound `COc1ccc(-c2cc(=O)c3ccc(OCCN4CCN(CCO)CC4)cc3o2)cc1`, the IC50 is 21.6 nM in assay [1] and 7.56 nM in [2].

`COc1cc(O)c2c(=O)c3cccc(O)c3oc2c1`: in assay [14], the IC50 amounted to 33000 nM. Also, the Ki in assay [15] was 53000 nM.

In assay [7], `COc1ccc(/C=C2\COc3cc(OCCCCCN4CCCCC4)ccc3C2=O)cc1` displayed an IC50 of 650 nM.

Turning to `CCN(CC)CCCCOc1cc(O)c2c(=O)c(-c3ccc(O)cc3)coc2c1`, the results for the IC50 in assay [1] and in [2] were above 100000 nM and 100 nM, respectively. In addition, in assay [16], the Activity is reported as 75.7%.

With `COc1ccc(/C=C2\COc3cc(OCCCN4CCCCC4)ccc3C2=O)cc1`, the figures for the IC50 in [1], in [7] and in assay [2] were 9210 nM, 3440 nM and 3940 nM, respectively.

Regarding `Oc1cc(O)c2c(c1)O[C@H](c1ccc(O)c(O)c1)[C@H](O)C2` [(-)-EPICATECHIN], the IC50 in assay [4] worked out at 5300 nM.

For the compound `C[C@@H]1O[C@@H](OC[C@H]2O[C@@H](Oc3cc(O)c4c(c3)O[C@H](c3ccc(O)cc3)CC4=O)[C@H](O)[C@@H](O)[C@@H]2O)[C@H](O)[C@H](O)[C@H]1O`, the inhibition in assay [17] was determined as 79.3%; in assay [18] it was 53%.

In the case of `O=c1c(O)c(-c2ccc(O)c(O)c2)oc2cc(O)ccc12` [FISETIN], the IC50 in assay [5] was 12500 nM.

In turn, `O=c1c(O)c(-c2ccc(O)c(O)c2)oc2cc(O)cc(O)c12` [QUERCETIN] came in with an IC50 in [5] of 2400 nM.

Compound `COc1cc2oc3cccc(O)c3c(=O)c2c(O)c1CN(C)C` had an IC50 in assay [2] of 100000 nM.

Take `O=c1cc(-c2ccc(O)c(O)c2)oc2cc(O)cc(O)c12` [LUTEOLIN]: the Activity in [19] is 49%.

For `COc1ccc(-c2cc(=O)c3ccc(OCCN4CCC(C)CC4)cc3o2)cc1`, the results for the IC50 in assay [1] and in assay [2] were 24.7 nM and 6.33 nM, respectively.

Consider `COc1c(O)cc2oc3cc(O)c(CC=C(C)C)c(O)c3c(=O)c2c1CCC(C)(C)O` [GARCINONE D], for which the inhibition came out at 12.9% in [20], 15% in assay [21], 62.7% in [22] and 34.9% in assay [23]. Further, the Activity in [24] is recorded as 45.4%.

`COc1ccc(-c2cc(=O)c3ccc(OCCN4CCCC4)cc3o2)cc1`: the IC50 in assay [1] came to 69.5 nM; in assay [2] it was 105 nM.

As to `COc1cc(-c2oc3cc(O)cc(O)c3c(=O)c2O)ccc1O` [ISORHAMNETIN], in assay [25], the Activity was found to be 64%.

For the compound `O=C(O[C@H]1Cc2c(O)cc(O)cc2O[C@H]1c1ccc(O)c(O)c1)c1cc(O)c(O)c(O)c1`, the concentration for half-maximal inhibition (IC50) is 2400 nM in assay [26] and 3000 nM in assay [4].

Take `CN(C)CCNC(=O)COc1cc(O)c2c(=O)c(-c3ccc(O)cc3)coc2c1.Cl`: the Activity in assay [27] is 1.53%. For the same compound, in assay [21], the inhibition was determined as 26%. The compound further had an IC50 in [2] of 2750 nM.

For the compound `Cc1ccc(NCC[C@@H]2CCCN3CCCC[C@H]23)c2c(=O)c3ccccc3oc12`, the IC50 in assay [1] was 370 nM; in [2] it was 140 nM; in assay [6], 13000 nM.

Turning to `CCC(=O)CNC(=O)Nc1nc2ccc(-c3oc4c(OC)c(O)c(O)c(OC)c4c(=O)c3O)cc2s1`, the IC50 in assay [1] is 0.32 nM; in assay [26] it was 2100 nM; in [2], 100 nM.

With `CNC(=O)Oc1cccc(CN(C)CCCCCCCOc2cccc(-c3cc(=O)c4ccccc4o3)c2)c1`, the inhibition in assay [28] came to 17.2%. The figures for the IC50 in assay [29] and in assay [30] were 0.52 nM and 63.7 nM, respectively.

For `CC(C)=CCc1cc2c(cc1O)O[C@@H](c1ccc(O)cc1)CC2=O`, the inhibition in [10] is 34%; in assay [11] it was 17%; in assay [12], 19%.

A word on the IC50: it is the point on the concentration scale where inhibition reaches its midpoint. The inhibition is the share of the control response that was lost under treatment. One may read the Ki as a measure of affinity in units of concentration, obtained from inhibition or displacement.

Values taken from ChEMBL document CHEMBL5252548, “A review on flavonoid-based scaffolds as multi-target-directed ligands (MTDLs) for Alzheimer's disease” (Eur J Med Chem, 2018).
